We go through 7 compounds from article PMC2762729 (Biochemistry, 2009).

“Also recorded” adds a separate entry of the source. Read-outs that look alike come from different tables or passages of the source.

The test system of assay [1] is saporin-L1. In kind it is biochemical, Saponaria officinalis.
Assay [2] has as its target T1, saporin-L1 (Saponaria officinalis, UniProt Q2QEH4). Kind of assay: Competitive inhibition of A-10 RNA.
Assay [3] has as its system saporin-L1. In kind it is biochemical, Saponaria officinalis. The source holds these as a separate data set.
The target of assay [4] is T1, saporin-L1. In kind it is biochemical. The conditions noted are these: read-out: EC50, rescue of translation; n = 3.
Assay [5] deals with T1, saporin-L1. Kind of assay: Competitive inhibition of A-10 RNA. This is another data set of the same source.
For assay [6], the system named is 35-mer synthetic SRL mimic with GAGA tetraloop. The conditions noted are these: cited from earlier work.
Assay [7] relates to saporin-L1. The conditions noted are these: pH 7.8; cited from earlier work.

T1 sequence (Q2QEH4 22-280 limits assumed): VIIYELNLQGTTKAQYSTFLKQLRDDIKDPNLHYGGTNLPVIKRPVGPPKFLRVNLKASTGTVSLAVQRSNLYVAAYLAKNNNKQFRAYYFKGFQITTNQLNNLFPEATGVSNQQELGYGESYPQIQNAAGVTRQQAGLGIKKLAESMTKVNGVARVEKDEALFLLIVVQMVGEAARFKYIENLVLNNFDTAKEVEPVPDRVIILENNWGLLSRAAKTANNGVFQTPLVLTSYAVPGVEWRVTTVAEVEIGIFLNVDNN

With 5′-CGCGAGAGCG-3′ [A-10 RNA], in the assay with saporin-L1 [1], the “Km, fold lower with saporin-L1 than with saporin-S6” value is listed as 4 fold; the “Km, fold tighter than poly(A) RNA” value is recorded as 4.5 fold; the “kcat/Km, fold increased catalytic efficiency over poly(A) RNA” value was found to be 45 fold; the “kcat/Km, fold more efficient with saporin-L1 than with saporin-S6” value is recorded as 4,800 fold. In the assay on saporin-L1 [1] (pH 7.7), the Km (usually the concentration of substrate that gives half-maximal velocity) turned out to be 95 ± 7 µM; the kcat (in general, the number of substrate molecules converted per active site and unit of time at saturation) is 7.33 ± 0.267 s⁻¹.

Take `Nc1ncnc2c(CN3C[C@H](CO)[C@@H](O)C3)c[nH]c12` [9-DA, 9-deazaadenine-9-methylene-N-hydroxypyrrolidine (DADMeA)]: the inhibition constant Ki (in general, a dissociation constant, usually derived from enzyme kinetics or from competition with a known ligand) at saporin-L1 [2] is > 500000 nM.

In the case of `Nc1ncnc2c(CN3C[C@H](CO)[C@@H](O)C3)c[nH]c12` [9-DA, 9-deazaadenine-9-methylene-N-hydroxypyrrolidine], in the assay on saporin-L1 [3], the “inhibition of saporin-L1 (in words)” value is “not an inhibitor; also recorded: poor inhibitor”. The Ki at saporin-L1 [3] (read-out: Ki (no slow onset observed)) is > 500000 nM.

On to `CO[C@@H]1[C@H](OP(=O)(O)OCCCO)[C@@H](COP(=O)(O)O[C@H]2CN(Cc3c[nH]c4c(N)ncnc34)C[C@@H]2COP(=O)(O)OCCCO)O[C@H]1n1cnc2c(=O)[nH]c(N)nc21` [s3(9-DA)Gs3 2′-OMe], for which, on saporin-L1 [4], the EC50 (usually the midpoint of the concentration-response curve) is 36 nM. The compound further yielded a Ki at saporin-L1 [5] of 6.4 ± 1.7 nM.

On to gelonin, for which, in assay [6], the “activity (in words)” value is reported as “no detectable activity”.

Turning to poly(A), in the assay with saporin-L1 [7], the Km is 639 ± 32 µM and the kcat was 1.02 ± 0.017 s⁻¹.

As to trichosanthin, in assay [6], the “activity (in words)” value is on record as “no detectable activity”.
